Data set [1] has as its system NIH 3T3 cells. Format: cell-based. The following applies: for cell death over drug pattern: lipid (DOTAP)-encapsulated drug pattern, FIG. 21. The procedure: NIH 3T3 cells (obtained from the American Type Culture Collection, CRL-1658™, and maintained according to the collections guidelines) for all experiments are seeded at 4×10^5 cells/mL and grown to 70% confluence in Dulbecco's Modified Eagle Medium supplemented with 10% Cosmic Calf Serum (Sigma Aldrich). Trypsin (0.25%) is used for cell detachment, and the medium is replaced with fresh medium 24 hours before the experiment. Cells are seeded onto the patterned glass coverslips by gently pipetting a drop of the cell suspension directly over each pattern to prevent the patterns from being washed away. The same method is used to seed other parts of the slide for use as control areas. The cells are incubated over the patterned areas for 48 hours.
Aliquots of valinomycin (20 mg/mL) and DOTAP (20 mg/mL), both dissolved in chloroform, are placed in an amber glass vial and serially diluted to produce valinomycin masses of 20, 10, 5, 2.5, 1.25 and 0.63 mg. Drying, liposome formation and cell culture are conducted as described above for the Rhodamine dose-response. Toxicity assays are performed after 24 and 48 hours.
Docetaxel (20 mg/mL) dissolved in DMSO is further serially diluted in Hank's buffered salt solution to produce seven solutions with docetaxel masses of 50, 25, 12.5, 6.25, 3.2, 1.6 and 0.8 mg respectively, each with a total volume of […]. The eighth is a solution of DMSO only (control) at the same volume as the 50 mg solution. These mixtures are added to […] of medium and added to the cells in the same manner as described above for the Rhodamine dose-response. Toxicity assays are performed after incubation for 48 hours.
The BacLight live/dead assay is purchased from Invitrogen. The cells are incubated with both SYTO 9 and propidium iodide for 20 min. The cells stained with both are counted as dead, and those stained with SYTO 9 only are counted as live.^34,35 All counting of live and dead cells is done by hand.
Valinomycin is tested first because of its quick action as a cytotoxic agent and immediate action upon incorporation into the cellular membrane. The drug acts as a potassium ionophore, facilitating loss of potassium and resulting in cell death. FIGS. 16, 17, 18 and 19 show a toxicity assay of cells that are cultured over a lipid multilayer microarray. […] In FIGS. 16, 17 and 18, arrows in 1612, 1614 and 1616 point to the same alignment mark. FIG. 16 is a brightfield image of DOTAP/valinomycin pattern before cell culture. […] FIG. 18 is a higher magnification of the square area 1702 of FIG. 17. Images are taken after 24 hours. Images in FIGS. 17 and 18 are the merged TRITC and FITC fluorescence channel images. FIG. 19 is a mosaic of images (TRITC filter set). Central square 1902 corresponds to FIG. 17, and the other squares are the areas immediately surrounding central square 1902. All live cells are stained green; nuclei of dead cells are stained red.
Taxotere® (docetaxel) is an anticancer drug and is a second-generation, semisynthetic analog of Taxol® (paclitaxel). Taxanes, which include paclitaxel and docetaxel, work by binding to microtubules and stabilizing them, thus preventing their disassembly and progression through mitosis, and therefore their functioning inside the cytoplasm. The cell may revert to the G1 phase or undergo apoptosis.^36 Cells are plated over patterns (such as that in FIG. 16) consisting of lipid only, lipid-encapsulated docetaxel and lipid-encapsulated valinomycin, all on the same glass coverslip and incubated for 48 hours. The results are shown in FIGS. 20, 21, 22, 23, 24, 25, 26, 27, 28 and 29.

Data set [2] deals with NIH 3T3 cells. Put plainly: live cell imaging of DOPE-rhodamine uptake from lipid pattern. The following applies: cells cultured over lipid pattern for 25 hours; decrease starts after 20 hours, complete by 25 hours. Format: cell-based. The protocol: DOTAP is mixed with 1 mol % DOPE-rhodamine, and 2 μL was deposited in the M-type inkwell for the DPN 2000.
Microscopy for all the imaging except the supplementary video is done with a Nikon Eclipse Ti microscope. The printed patterns and the Retiga-SRV fast 1394 camera are used. Patterns are imaged in brightfield before cell culture. Nikon fluorescence filter sets B-2E/C FITC and G-2E/C TRITC are used for the live/dead cell assay. Imaging is done at 800 m sec exposure time with the 10× (NA=0.3) objective and at 1 second for the 4× (NA=0.13) objective. Lamp intensity for all imaging is set at 4. Microscopy for the live cell lipid uptake for the supplementary video is done with a Nikon TE-2000-E inverted microscope equipped with a Nikon Plan Apo 40× (NA=0.95) DIC objective.
FIGS. 10, 11, 12, 13, 14 and 15 show the uptake of DOPE-rhodamine-labeled DOTAP by NIH 3T3 cells. […] Fluorescence intensity is used as the indicator of the amount of lipid taken up by the cells. A higher fluorescence in cells indicates higher uptake of lipids. Grid lines 1022 and 1024 in FIG. 10 and grid lines 1026 and 1028 in FIGS. 10 and 11 divide the images of FIGS. 10 and 11 into areas 1032 and 1034, respectively, analyzed and compared for fluorescence intensity before and after cell incubation on the patterns. […]

[3] abbreviates: NIH 3T3 cells, 48 hours, live/dead assay.

As to `CC(C)[C@@H]1NC(=O)[C@H](C)OC(=O)[C@@H](C(C)C)NC(=O)[C@@H](C(C)C)OC(=O)[C@H](C(C)C)NC(=O)[C@H](C)OC(=O)[C@@H](C(C)C)NC(=O)[C@@H](C(C)C)OC(=O)[C@H](C(C)C)NC(=O)[C@H](C)OC(=O)[C@@H](C(C)C)NC(=O)[C@@H](C(C)C)OC1=O` [valinomycin], in data set [1] (DOTAP/valinomycin pattern (4:1 lipid-to-drug), NIH 3T3 cells, 24 hours, live/dead assay), the “toxicity level from the surface (cells killed)” value is “about 11%”. The “corresponding concentration of liposomal drug delivered from solution” value in data set [1] (equivalent solution concentration for the toxicity of the DOTAP/valinomycin pattern, 24 hours) is listed as “about 0.1 mg/mL”. The “cell death over drug pattern” value in data set [1] (setting [3]) is “about 25%”.

Turning to `CCCCCCCC/C=C\CCCCCCCC(=O)OCC(C[N+](C)(C)C)OC(=O)CCCCCCC/C=C\CCCCCCCC.[Cl-]` (stereo not shown) [DOTAP, 1,2-dioleoyl-3-trimethylammonium-propane (chloride salt)], in data set [1] (DOTAP-only pattern, NIH 3T3 cells, 48 hours, p>0.05), the “toxicity of lipid-only pattern versus control with medium only” value is reported as “did not differ significantly”.

In the case of “1,2-dioleoyl-sn-glycerol-3-phosphoethanolamine-N-(lissamine rhodamine b sulfonyl) (ammonium salt) [DOPE-rhodamine]”, the “critical uptake time (window in which fluorescence of absorbed spots disappears)” value in data set [2] was found to be 5 h.

For `CC(=O)O[C@@]12CO[C@@H]1C[C@H](O)[C@@]1(C)C(=O)[C@H](O)C3=C(C)[C@@H](OC(=O)[C@H](O)[C@@H](NC(=O)OC(C)(C)C)c4ccccc4)C[C@@](O)([C@@H](OC(=O)c4ccccc4)[C@H]21)C3(C)C` [docetaxel], the “comparable concentration of docetaxel dissolved in DMSO delivered from solution” value in data set [1] (equivalent solution concentration for the toxicity of the docetaxel pattern, 48 hours) is listed as “approximately 6.25 mg/mL”. Besides, in data set [1] (setting [3]), the “cell death over drug pattern” value is listed as “over 60%”.

(Values after patent publication US9447446B2, “Lipid multilayer microarrays and their use for cell culture screening” (FLORIDA STATES UNIVERSITY RESEARCH FOUNDATION, priority 2011, dated 2016).)
